According to ChEMBL document CHEMBL6109155, “Discovery of Phenylacylpiperidine as Novel sEH Inhibitors through Scaffold Hopping of Natural Stilbene” (J Med Chem, 2025):
Each block holds one compound with its values, some of them ahead of it. Active and inactive are the calls of the source. The rule behind the calls is not given here.

Key:
[1] = system: Mus musculus; assay: Anti-inflammatory activity in BALB/c mouse model of carrageenan-induced paw edema assessed as inhibition of paw swelling at 10 mg/kg, po measured up to 6 hrs relative to control; assay type: functional
[2] = system: Mus musculus; assay: Anti-inflammatory activity in BALB/c mouse model of carrageenan-induced paw edema assessed as decrease in plasma 14,15-DHET levels at 10 mg/kg, po measured after 6 hrs; assay type: functional, organism-based
[3] = system: Mus musculus; assay: Anti-inflammatory activity in BALB/c mouse model of carrageenan-induced paw edema assessed as decrease in plasma 8,9-DHET levels at 10 mg/kg, po measured after 6 hrs; assay type: functional, organism-based
[4] = system: Mus musculus; assay: Anti-inflammatory activity in BALB/c mouse model of carrageenan-induced paw edema assessed as decrease in plasma 11,12-DHET levels at 10 mg/kg, po measured after 6 hrs; assay type: functional, organism-based
[5] = system: Mus musculus; assay: Anti-inflammatory activity in BALB/c mouse model of carrageenan-induced paw edema assessed as increase in ratio of 14,15-EET to DHET plasma levels at 10 mg/kg, po measured after 6 hrs; assay type: functional, organism-based
[6] = system: Mus musculus; assay: Anti-inflammatory activity in BALB/c mouse model of carrageenan-induced paw edema assessed as increase in ratio of 11,12-EET to DHET plasma levels at 10 mg/kg, po measured after 6 hrs; assay type: functional, organism-based
[7] = system: Mus musculus; assay: Anti-inflammatory activity in BALB/c mouse model of carrageenan-induced paw edema assessed as increase in ratio of 8,9-EET to DHET plasma levels at 10 mg/kg, po measured after 6 hrs; assay type: functional, organism-based
[8] = system: Mus musculus; assay: Effect on liver sEH enzyme activity in BALB/c mouse model of carrageenan-induced paw edema at 1 to 10 mg/kg, po measured after 6 hrs; assay type: functional, organism-based; conditions: dose 1-10 mg/kg
[9] = system: Mus musculus; assay: Effect on liver sEH protein content in BALB/c mouse model of carrageenan-induced paw edema at 1 to 10 mg/kg, po measured after 6 hrs; assay type: functional, organism-based; conditions: dose 1-10 mg/kg
[10] = system: RAW264.7; assay: Anti-inflammatory activity in LPS-indeced mouse RAW264.7 cells assessed as reduction in TNF-alpha level at 10 uM preincubated for 1 hr followed by LPS addition measured after 24 hrs by ELISA; assay type: functional, cell-based; conditions: time 25.0 hrs
[11] = system: RAW264.7; assay: Anti-inflammatory activity in LPS-indeced mouse RAW264.7 cells assessed as reduction in IL-1beta level at 10 uM preincubated for 1 hr followed by LPS addition measured after 24 hrs by ELISA; assay type: functional, cell-based
[12] = system: RAW264.7; assay: Anti-inflammatory activity in LPS-indeced mouse RAW264.7 cells assessed as reduction in IL-6 level at 10 uM preincubated for 1 hr followed by LPS addition measured after 24 hrs by ELISA; assay type: functional, cell-based
[13] = system: RAW264.7; assay: Effect on IL-10 level in LPS-indeced mouse RAW264.7 cells at 10 uM preincubated for 1 hr followed by LPS addition measured after 24 hrs by ELISA; assay type: functional, cell-based
[14] = system: RAW264.7; assay: Effect on IL-6 level in LPS-indeced mouse RAW264.7 cells at 10 uM preincubated for 1 hr followed by LPS addition measured after 24 hrs by ELISA; assay type: functional, cell-based
[15] = system: RAW264.7; assay: Upregulation of IL-10 level in LPS-indeced mouse RAW264.7 cells at 10 uM preincubated for 1 hr followed by LPS addition measured after 24 hrs by ELISA; assay type: functional, cell-based
[16] = system: Mus musculus; assay: Anti-inflammatory activity in BALB/c mouse model of carrageenan-induced paw edema assessed as inhibition of paw swelling at 20 mg/kg, po measured for 0.5 hrs relative to control; assay type: functional; conditions: Mus musculus, BALB/c
[17] = system: Mus musculus; assay: Anti-inflammatory activity in BALB/c mouse model of carrageenan-induced paw edema assessed as inhibition of paw swelling at 20 mg/kg, po measured for 4 hrs relative to control; assay type: functional
[18] = target: T1, Bifunctional epoxide hydrolase 2 (Mus musculus, UniProt P34914); assay: biochemical
T1 sequence (P34914 whole entry): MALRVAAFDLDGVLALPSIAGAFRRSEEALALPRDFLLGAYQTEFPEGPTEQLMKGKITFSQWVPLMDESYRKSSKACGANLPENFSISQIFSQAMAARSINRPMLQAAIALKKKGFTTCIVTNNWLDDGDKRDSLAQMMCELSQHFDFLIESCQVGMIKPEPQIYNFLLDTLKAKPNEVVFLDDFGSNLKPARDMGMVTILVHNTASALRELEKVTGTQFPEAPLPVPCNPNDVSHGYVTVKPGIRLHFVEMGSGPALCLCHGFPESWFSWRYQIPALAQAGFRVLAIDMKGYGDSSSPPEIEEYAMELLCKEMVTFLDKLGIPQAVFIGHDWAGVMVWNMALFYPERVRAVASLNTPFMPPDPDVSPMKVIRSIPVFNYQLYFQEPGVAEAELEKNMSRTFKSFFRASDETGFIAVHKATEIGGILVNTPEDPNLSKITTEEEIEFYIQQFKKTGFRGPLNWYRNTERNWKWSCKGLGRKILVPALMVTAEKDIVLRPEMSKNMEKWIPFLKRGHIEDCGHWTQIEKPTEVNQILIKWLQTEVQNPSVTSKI
Description: Inhibition of C57BL/6J mouse brain sEH using 14,15-EET as substrate preincubated for 15 mins followed by substrate addition by HPLC-MS analysis

Compound: CC[C@H](C)C(=O)N1CCC(NC(=O)Nc2ccc(OC(F)(F)F)c(F)c2)CC1
Imax [1]: 30.6%
Activity [2]: Active
Activity [3]: Active
Activity [4]: Active
Activity [5]: Active
Activity [6]: Active
Activity [7]: Active
Activity [8]: Active
Activity [9]: Active
Activity [10]: Active
Activity [11]: Active
Activity [12]: Active
Activity [13]: No effect
Activity [14]: No effect
Activity [15]: Active

IC50 [18]: 1.44 nM
Compound: COc1cc(OC)c2c(c1)C1Cc3ccc(NC(=O)NCc4ccc(OC(F)(F)F)cc4)cc3CN1CC2 (stereo not drawn)
inhibition in vivo at 20 mg/kg [16]: 24.7%
inhibition in vivo at 20 mg/kg [17]: 38.5%
